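Cells were grown in 96-well plates and exposed to each compound for 48 hours at five concentrations; endpoints were interpolated linearly between bracketing concentrations, or set to the highest concentration if not reached. Here, GI50 denotes the concentration required for 50% inhibition of growth.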 Active and inactive are the calls of the source. Rule as the data show it: active = GI50 up to about 1.1 µM and inactive = higher.
Tests used:
Test in all cases: DTP human tumour cell line panel, 48 h
[1] = test system: A498
[2] = test system: HOP-62
[3] = test system: HT-29
[4] = test system: MDA-N
[5] = test system: SF-268
[6] = test system: CAKI-1
[7] = test system: SR
[8] = test system: MDA-MB-435
[9] = test system: SF-539
[10] = test system: UACC-257
[11] = test system: SK-MEL-28
[12] = test system: EKVX
[13] = test system: T47D
[14] = test system: Malme-3M
[15] = test system: TK-10
[16] = test system: HCC 2998
[17] = test system: BT-549
[18] = test system: SK-OV-3
[19] = test system: SN12C
[20] = test system: COLO 205
[21] = test system: DU-145
[22] = test system: SF-295
[23] = test system: IGROV-1
[24] = test system: KM12
[25] = test system: HCT-116
[26] = test system: SNB-19
[27] = test system: NCI/ADR-RES
[28] = test system: SW-620
[29] = test system: RXF 393
[30] = test system: OVCAR-3
[31] = test system: U-251
[32] = test system: NCI-H460
[33] = test system: MCF7
[34] = test system: NCI-H226
[35] = test system: HCT-15
[36] = test system: SK-MEL-5
[37] = test system: K562
[38] = test system: OVCAR-4
[39] = test system: Hs-578T
[40] = test system: NCI-H23
[41] = test system: M14
[42] = test system: NCI-H522
[43] = test system: A549
[44] = test system: OVCAR-8
[45] = test system: CCRF-CEM
[46] = test system: ACHN
[47] = test system: HL-60
[48] = test system: LOX IMVI
[49] = test system: 786-0
[50] = test system: HOP-92
[51] = test system: UO-31
[52] = test system: SNB-75
[53] = test system: OVCAR-5
[54] = test system: MDA-MB-231
[55] = test system: UACC-62
[56] = test system: SK-MEL-2

C/C(=N\N=C(\N)OB(F)F)c1ccccn1 was tested, and the GI50 [1] was > 100 µM (inactive), the GI50 [2] was 37.5 µM (inactive) and the GI50 [3] was 47.3 µM (inactive). For the same compound, the GI50 [4] was 71.9 µM (inactive), the GI50 [5] was > 100 µM (inactive) and the GI50 [6] was > 100 µM (inactive). The GI50 [7] was 76.6 µM (inactive), the GI50 [8] was > 100 µM (inactive) and the GI50 [9] was > 100 µM (inactive). For the same compound, the GI50 [10] was > 100 µM (inactive), the GI50 [11] was > 100 µM (inactive) and the GI50 [12] was 18.5 µM (inactive). The GI50 [13] was > 100 µM (inactive), the GI50 [14] was > 100 µM (inactive) and the GI50 [15] was 59.7 µM (inactive). For the same compound, the GI50 [16] was > 100 µM (inactive), the GI50 [17] was > 100 µM (inactive) and the GI50 [18] was > 10 µM (inactive). For the same compound, the GI50 [19] was > 100 µM (inactive), the GI50 [20] was > 100 µM (inactive) and the GI50 [21] was > 100 µM (inactive). For the same compound, the GI50 [22] was 66.8 µM (inactive), the GI50 [23] was 64.3 µM (inactive) and the GI50 [24] was > 100 µM (inactive). The GI50 [25] was 58.5 µM (inactive), the GI50 [26] was > 100 µM (inactive) and the GI50 [27] was > 100 µM (inactive). The GI50 [28] was > 100 µM (inactive), the GI50 [29] was 9.33 µM (inactive) and the GI50 [30] was 92 µM (inactive). For the same compound, the GI50 [31] was 35.7 µM (inactive), the GI50 [32] was 40.8 µM (inactive) and the GI50 [33] was 79.4 µM (inactive). For the same compound, the GI50 [34] was 40.8 µM (inactive), the GI50 [35] was 93.8 µM and the GI50 [36] was > 100 µM (inactive). The GI50 [37] was 46.7 µM (inactive), the GI50 [38] was 35 µM (inactive) and the GI50 [39] was 28.6 µM (inactive). For the same compound, the GI50 [40] was > 100 µM (inactive), the GI50 [41] was > 100 µM (inactive) and the GI50 [42] was > 100 µM (inactive). For the same compound, the GI50 [43] was > 100 µM (inactive), the GI50 [44] was 75 µM (inactive) and the GI50 [45] was 43.4 µM (inactive). The GI50 [46] was 81.1 µM (inactive), the GI50 [47] was 63.5 µM (inactive) and the GI50 [48] was 28.2 µM (inactive). The GI50 [49] was 40.4 µM (inactive), the GI50 [50] was 12.7 µM (inactive) and the GI50 [51] was 71.4 µM (inactive). The GI50 [52] was 7.23 µM (inactive), the GI50 [53] was > 100 µM (inactive) and the GI50 [54] was 24.6 µM (inactive). For the same compound, the GI50 [55] was 82.2 µM (inactive) and the GI50 [56] was > 100 µM (inactive).

From ChEMBL document CHEMBL1201862, “PubChem BioAssay data set” (2004)
